Assay results: patent US20240158392A1 (Janssen Biotech, Inc., priority 2021, published 2024)

Each molecule was assayed against SIK2 (Homo sapiens, UniProt Q9H0K1) (assay: SIK2 Enzymatic Assay High Version 2 (High ATP)). Conditions: not given.
Assay type: biochemical
Procedure, shortened: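 At room temperature, enzyme (6 nM, 2× final) was preincubated with compound for 30 min, then 6 mM ATP and 400 μM HDAC5tide (both 2× final) were added for 2 h. ADP formed was measured by ADP-Glo Max (2 h reagent, 1 h detection) using luminescence.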

Sequence of SIK2 (Q9H0K1 whole entry, species assumed): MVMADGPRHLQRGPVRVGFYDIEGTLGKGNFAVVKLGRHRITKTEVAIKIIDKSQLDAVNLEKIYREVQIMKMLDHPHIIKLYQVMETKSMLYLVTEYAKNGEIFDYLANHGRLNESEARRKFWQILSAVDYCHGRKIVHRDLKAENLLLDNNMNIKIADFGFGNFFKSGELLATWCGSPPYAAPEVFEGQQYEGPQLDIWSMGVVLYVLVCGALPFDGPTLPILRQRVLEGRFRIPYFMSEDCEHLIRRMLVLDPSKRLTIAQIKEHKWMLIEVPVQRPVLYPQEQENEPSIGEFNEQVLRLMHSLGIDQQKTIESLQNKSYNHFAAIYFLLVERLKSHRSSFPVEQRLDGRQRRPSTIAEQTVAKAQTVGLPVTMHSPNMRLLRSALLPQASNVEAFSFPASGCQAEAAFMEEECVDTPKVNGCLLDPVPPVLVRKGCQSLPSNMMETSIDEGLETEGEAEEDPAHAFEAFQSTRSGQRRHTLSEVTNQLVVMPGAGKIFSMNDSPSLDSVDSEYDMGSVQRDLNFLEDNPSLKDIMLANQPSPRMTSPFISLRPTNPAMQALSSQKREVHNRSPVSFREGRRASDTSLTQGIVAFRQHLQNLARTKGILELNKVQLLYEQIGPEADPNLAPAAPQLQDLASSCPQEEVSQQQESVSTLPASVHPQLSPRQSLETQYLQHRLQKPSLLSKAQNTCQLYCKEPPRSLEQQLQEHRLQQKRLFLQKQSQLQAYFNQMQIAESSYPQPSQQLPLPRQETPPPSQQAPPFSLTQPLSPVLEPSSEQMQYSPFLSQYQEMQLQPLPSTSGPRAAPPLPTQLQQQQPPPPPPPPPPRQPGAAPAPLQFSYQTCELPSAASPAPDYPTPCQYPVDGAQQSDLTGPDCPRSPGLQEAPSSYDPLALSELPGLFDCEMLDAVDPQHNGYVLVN

In order of falling IC50:
1. [2H]C([2H])([2H])N1CC[C@H]1COc1cnc(C)cc1-c1ccn2nc(NC(=O)C3CC3)cc2c1 [Example 575, N-[5-[2-methyl-5-[[(2S)-1-(trideuteriomethyl)azetidin-2-yl]methoxy]-4-pyridyl]pyrazolo[1,5-a]pyridin-2-yl]cyclopropanecarboxamide]  0.0703 µM
2. CC#Cc1ccc(O[C@H]2C[C@H]3COC[C@@H](C2)N3)c(-c2ccn3nc(NC(=O)C4CC4)cc3c2)c1 [Example 479, N-[5-[2-[[(1R,5S)-3-oxa-9-azabicyclo[3.3.1]nonan-7-yl]oxy]-5-prop-1-ynyl-phenyl]pyrazolo[1,5-a]pyridin-2-yl]cyclopropanecarboxamide]  0.0371 µM
3. CCN1CC[C@@H]1COc1cnc(C)cc1-c1ccn2nc(NC(=O)C3CC3)cc2c1 [Example 451, N-[5-[5-[[(2R)-1-ethylazetidin-2-yl]methoxy]-2-methyl-4-pyridyl]pyrazolo[1,5-a]pyridin-2-yl]cyclopropanecarboxamide]  0.0182 µM
4. Cc1cc(-c2ccn3nc(Nc4cn(C)nc4F)cc3c2)c(O[C@H]2C[C@H]3COC[C@@H](C2)N3C)cn1 [Example 119, N-(3-fluoro-1-methyl-1H-pyrazol-4-yl)-5-(2-methyl-5-(((1R,5S,7s)-9-methyl-3-oxa-9-azabicyclo[3.3.1]nonan-7-yl)oxy)pyridin-4-yl)pyrazolo[1,5-a]pyridin-2-amine]  0.00127 µM

Same assay, conditions: enzyme 6 nM, 6 mM ATP and 400 μM HDAC5tide (each 2× final concentration); 30 minutes pre-incubation, 2 hours; ADP-Glo Max luminescence; read-out: SIK2 high ATP IC50 (μM) (Test Example 2)

Going from Cc1cc(-c2ccn3nc(Nc4cnn(C(C)C)c4)cc3c2)c(OC[C@@H]2CNCCO2)cn1 [Example 133, N-(1-isopropylpyrazol-4-yl)-5-[2-methyl-5-[[(2S)-morpholin-2-yl]methoxy]-4-pyridyl]pyrazolo[1,5-a]pyridin-2-amine] to Cc1cc(-c2ccn3nc(Nc4cnn(C(C)C)c4)cc3c2)c(OC2CN(C)C2)cn1 [Example 511, N-(1-isopropylpyrazol-4-yl)-5-[2-methyl-5-(1-methylazetidin-3-yl)oxy-4-pyridyl]pyrazolo[1,5-a]pyridin-2-amine], the IC50 rises from 0.00845 µM to 0.0683 µM (8.1-fold). The first is the more potent here.

Compared with Cc1cc(-c2ccn3nc(Nc4cccnn4)cc3c2)c(OC[C@H]2CNCC(C)(C)O2)cn1 (single isomer, unassigned) [Example 516, (*R)-5-[5-[(6,6-dimethylmorpholin-2-yl)methoxy]-2-methyl-4-pyridyl]-N-pyridazin-3-yl-pyrazolo[1,5-a]pyridin-2-amine], Cc1cc(-c2ccn3nc(Nc4cnccn4)cc3c2)c(OC[C@H]2CN(C)CCO2)cn1 [Example 611, 5-[2-methyl-5-[[(2R)-4-methylmorpholin-2-yl]methoxy]-4-pyridyl]-N-pyrazin-2-yl-pyrazolo[1,5-a]pyridin-2-amine] is 2.2-fold higher in IC50: 0.0528 µM for the first, 0.116 µM for the second.

Cc1cc(-c2ccn3nc(Nc4cc(C)nc(C)n4)cc3c2)c(O[C@H]2CC[C@H](O)CC2)cn1 [Example 198, trans-4-[[4-[2-[(2,6-dimethylpyrimidin-4-yl)amino]pyrazolo[1,5-a]pyridin-5-yl]-6-methyl-3-pyridyl]oxy]cyclohexanol] and Cc1cc(-c2ccn3nc(Nc4cc(C)nc(C)n4)cc3c2)c(O[C@H]2CCNC2)cn1 [Example 276, N-(2,6-dimethylpyrimidin-4-yl)-5-[2-methyl-5-[(3S)-pyrrolidin-3-yl]oxy-4-pyridyl]pyrazolo[1,5-a]pyridin-2-amine] are within 1.5-fold of each other in IC50: 0.00877 µM for the first, 0.00921 µM for the second.

Compared with Cc1cc(Nc2cc3cc(-c4cc(OCCO)ncc4OCC(C)(C)C#N)ccn3n2)nc(C)n1 [Example 678, 3-[[4-[2-[(2,6-dimethylpyrimidin-4-yl)amino]pyrazolo[1,5-a]pyridin-5-yl]-6-(2-hydroxyethoxy)-3-pyridyl]oxy]-2,2-dimethyl-propanenitrile], Cc1cc(-c2ccn3nc(Nc4cc(C)nc(C)n4)cc3c2)c(OCC(C)(C)C#N)cn1 [Example 262, 3-[[4-[2-[(2,6-dimethylpyrimidin-4-yl)amino]pyrazolo[1,5-a]pyridin-5-yl]-6-methyl-3-pyridyl]oxy]-2,2-dimethyl-propanenitrile] is 19-fold lower in IC50: 0.0443 µM for the first, 0.00231 µM for the second.

Going from Cn1ccc(Nc2cc3cc(-c4cc(C#N)cnc4OC[C@@H]4CNCCO4)ccn3n2)n1 [Example 564, 5-[2-[(1-methylpyrazol-3-yl)amino]pyrazolo[1,5-a]pyridin-5-yl]-6-[[(2S)-morpholin-2-yl]methoxy]pyridine-3-carbonitrile] to Cc1cc(-c2ccn3nc(Nc4cnc(C(F)F)cn4)cc3c2)c(OC[C@H]2OCC[C@@H]2O)cn1 [Example 295, (2R,3S)-2-[[4-[2-[[5-(difluoromethyl)pyrazin-2-yl]amino]pyrazolo[1,5-a]pyridin-5-yl]-6-methyl-3-pyridyl]oxymethyl]tetrahydrofuran-3-ol], the IC50 rises from 0.00339 µM to 0.0176 µM (5.2-fold). The first is the more potent here.

Compared with CN1CC(Oc2nnc(Cl)cc2-c2ccn3nc(NC(=O)C4CC4)cc3c2)C1 [Example 485, N-[5-[6-chloro-3-(1-methylazetidin-3-yl)oxy-pyridazin-4-yl]pyrazolo[1,5-a]pyridin-2-yl]cyclopropanecarboxamide], Cc1cc(-c2ccn3nc(Nc4cnc5cc[nH]c5n4)cc3c2)c(O[C@H]2CC[C@H](O)CC2)cn1 [Example 289, 4-[[6-methyl-4-[2-(5H-pyrrolo[2,3-b]pyrazin-3-ylamino)pyrazolo[1,5-a]pyridin-5-yl]-3-pyridyl]oxy]cyclohexanol] is higher in IC50: less than 0.000847 µM for the first, 0.00114 µM for the second.

Going from Cc1cc(-c2ccn3nc(Nc4cc(C)nc(C)n4)cc3c2)c(OC[C@@]2(O)CCCOC2)cn1 (single isomer, unassigned) [Example 216, (*R)-3-[[4-[2-[(2,6-dimethylpyrimidin-4-yl)amino]pyrazolo[1,5-a]pyridin-5-yl]-6-methyl-3-pyridyl]oxymethyl]tetrahydropyran-3-ol] to Cc1cc(-c2ccn3nc(Nc4cc(C)nc(C)n4)cc3c2)c(O[C@H]2COC[C@H]2C)cn1 (single isomer, unassigned) [Example 534, (3*R, 4*R)—N-(2,6-dimethylpyrimidin-4-yl)-5-[2-methyl-5-(4-methyltetrahydrofuran-3-yl)oxy-4-pyridyl]pyrazolo[1,5-a]pyridin-2-amine], the IC50 falls from 0.0311 µM to 0.0145 µM (2.1-fold).

Compared with Cc1cc(-c2ccn3nc(Nc4cc(C)nc(C)n4)cc3c2)c(O[C@H]2COC(C)(C)C2)cn1 (single isomer, unassigned) [Example 577, (*R)—N-(2,6-dimethylpyrimidin-4-yl)-5-[5-(5,5-dimethyltetrahydrofuran-3-yl)oxy-2-methyl-4-pyridyl]pyrazolo[1,5-a]pyridin-2-amine], Cc1cc(-c2ccn3nc(Nc4cc(C)nc(C)n4)cc3c2)c(OCC2CC(=O)N(C)C2)cn1 (single isomer, unassigned) [Example 547, (*R)-4-[[4-[2-[(2,6-dimethylpyrimidin-4-yl)amino]pyrazolo[1,5-a]pyridin-5-yl]-6-methyl-3-pyridyl]oxymethyl]-1-methyl-pyrrolidin-2-one] is 5.2-fold lower in IC50: 0.0724 µM for the first, 0.014 µM for the second.

CC#Cc1cc(-c2ccn3nc(Nc4cc(C)nc(C)n4)cc3c2)c(OC[C@]23CN[C@H](CO2)C3)cn1 [Example 302, N-(2,6-dimethylpyrimidin-4-yl)-5-[5-[[(1S,4S)-5-oxa-2-azabicyclo[2.2.1]heptan-4-yl]methoxy]-2-prop-1-ynyl-4-pyridyl]pyrazolo[1,5-a]pyridin-2-amine] and Cc1cc(Nc2cc3cc(-c4cc(Cl)ncc4OC[C@]45CN[C@H](CO4)C5)ccn3n2)nc(C)n1 [Example 303, 5-[2-chloro-5-[[(1S,4S)-5-oxa-2-azabicyclo[2.2.1]heptan-4-yl]methoxy]-4-pyridyl]-N-(2,6-dimethylpyrimidin-4-yl)pyrazolo[1,5-a]pyridin-2-amine] are within 1.5-fold of each other in IC50: 0.000975 µM for the first, 0.000971 µM for the second.

Compared with Cc1cc(-c2ccn3nc(Nc4ccc5cc[nH]c5n4)cc3c2)c(OCC(C)(C)C#N)cn1 [Example 307, 2,2-dimethyl-3-[[6-methyl-4-[2-(1H-pyrrolo[2,3-b]pyridin-6-ylamino)pyrazolo[1,5-a]pyridin-5-yl]-3-pyridyl]oxy]propanenitrile], Cc1cc(Nc2cc3cc(-c4cc(C)ncc4OCC(C)(C)O)ccn3n2)nc(C(=O)N(C)C)c1 [Example 244, 6-[[5-[5-(2-hydroxy-2-methyl-propoxy)-2-methyl-4-pyridyl]pyrazolo[1,5-a]pyridin-2-yl]amino]-N,N,4-trimethyl-pyridine-2-carboxamide] is 17-fold higher in IC50: 0.00132 µM for the first, 0.0218 µM for the second. The first is the more potent here.

First: Cc1cc(Nc2cc3cc(-c4cc(OC(F)F)ncc4OCC(C)(C)C(N)=O)ccn3n2)nc(C)n1 [Example 727, 3-[[6-(difluoromethoxy)-4-[2-[(2,6-dimethylpyrimidin-4-yl)amino]pyrazolo[1,5-a]pyridin-5-yl]-3-pyridyl]oxy]-2,2-dimethyl-propanamide]
Second: Cc1cc(Nc2cc3cc(-c4cc(OC(F)F)ncc4OCC(C)(N)C(F)(F)F)ccn3n2)nc(C)n1 (single isomer, unassigned) [Example 756, (*S)-5-[5-(2-amino-3,3,3-trifluoro-2-methyl-propoxy)-2-(difluoromethoxy)-4-pyridyl]-N-(2,6-dimethylpyrimidin-4-yl)pyrazolo[1,5-a]pyridin-2-amine]
The IC50 of the first is 18-fold lower: 0.0152 µM for the first, 0.275 µM for the second. The first is the more potent here.

COc1cc(Nc2cc3cc(-c4cc(C)ncc4OCC(C)(C)O)ccn3n2)cc(OC)c1 [Example 646, 1-[[4-[2-(3,5-dimethoxyanilino)pyrazolo[1,5-a]pyridin-5-yl]-6-methyl-3-pyridyl]oxy]-2-methyl-propan-2-ol] and Cc1cc(-c2ccn3nc(Nc4cc(C)c(C(=O)NC5CC5)c(C)n4)cc3c2)c(OCC(C)(C)O)cn1 [Example 335, N-cyclopropyl-6-[[5-[5-(2-hydroxy-2-methyl-propoxy)-2-methyl-4-pyridyl]pyrazolo[1,5-a]pyridin-2-yl]amino]-2,4-dimethyl-pyridine-3-carboxamide] are within 1.5-fold of each other in IC50: 0.0313 µM for the first, 0.0233 µM for the second.

Cc1cc(-c2cn3cc(Nc4cc(C)nc(C)n4)nc3cn2)c(O[C@H]2CC[C@@H](O)CC2)cn1 [Example 506, 4-[[4-[2-[(2,6-dimethylpyrimidin-4-yl)amino]imidazo[1,2-a]pyrazin-6-yl]-6-methyl-3-pyridyl]oxy]cyclohexanol] gave an IC50 of 0.0178 µM.
